Assay results taken from paper PMC11395145, “The Archetypal Gamma-Core Motif of Antimicrobial Cys-Rich Peptides Inhibits H^+-ATPases in Target Pathogens” (International Journal of Molecular Sciences, 2024).

Assays:
[1] = system: P. aeruginosa cells; test: Oxygen consumption measurement (Clark-type electrode); type: cell-based, Pseudomonas aeruginosa; settings: 5 × 10^6 cells/mL, peptides at IC50, piericidin A 32 μM, at least 30 min, 25 °C
Description: (§1) Figure 3 Effect of cellular respiration on the microbicidal activity of hLf γ-core-containing peptides. (A,C) Oxygen consumption was measured in C. albicans and P. aeruginosa cellular suspensions in the absence (control) or the presence of kaliocin-1 (Kal-1), Kdp15, or human lactoferrin (hLf), and piericidin A (positive control). (B,D) Effect of cellular respiration on the microbicidal activity of hLf γ-core-containing peptides. Cells (10^6 cells/mL) were pre-incubated (15 min, 37 °C) with 32 μM piericidin A and incubated for 90 min at 37 °C with the peptides hLf or BM2. The cell viability was determined by means of the plate counting method. The results are the mean ± SD from duplicates of at least three independent experiments. * p < 0.05, ** p < 0.01, and *** p < 0.001 were used.
(§2) C. albicans or P. aeruginosa cells were grown to the mid-logarithmic phase, washed twice in Tris buffer, and resuspended in the same buffer, as described in [9, 10]. Briefly, cells (5 × 10^6 cells/mL) were pre-incubated for 15 min at 37 °C with the peptides (IC50). […] Oxygen consumption was measured using a Clark-type oxygen electrode (Dual digital-model 20, Rank Brothers Ltd., Cambridge, UK) in a closed jacketed chamber maintained at 25 °C. […] The viability of the cells was determined at 30 min by removing aliquots from the oxygen chambers and plating the subsequent dilutions on SDA or TSA plates.

[2] = system: Candida albicans ATCC 10231; test: Microbicidal (spread-plate cell viability) assay, candidacidal activity; type: cell-based; settings: for IC50: 90 min, 37 °C, 10 mM Tris-HCl pH 7.4, 10^6 cells/mL, CFU plating, estimated, read-out: IC50 (concentration that caused 50% reduction in viable counts) against C. albicans; for effect of high external K^+ on candidacidal activity: Tris buffer with 50 mM KCl vs without
Description: (§3) First, we tested the antimicrobial activity of Kal-1 and a shorter Kal-1-derived peptide (Kdp15), both containing the complete γ-core signature of human lactoferrin, against C. albicans and P. aeruginosa. Microbicidal (cidal) activity was determined after 90 min of incubation (37 °C; pH 7.4) with a range of concentrations of each hLf-derived peptide.
(§4) Figure 1 Cell viability and membrane permeabilization assays. C. albicans or P. aeruginosa (10^6 cells/mL) were incubated (90 min, 37 °C) with each peptide/protein at the indicated concentrations. Aliquots were plated on SDA or […], and colonies were counted after 24–48 h (C. albicans) or 24 h (P. aeruginosa). At each point, samples were stained with propidium iodide (PI) and intracellular PI incorporation, indicative of membrane permeabilization, was quantified by flow cytometry. The relative cell viability (blue lines) and cellular permeabilization (red lines) were calculated as the percentage of untreated cells. Human lactoferrin (hLf) and the peptide Lfpep were used as negative and positive controls of cellular permeabilization, respectively.
(§5) Microbial susceptibility to the peptides was determined in a spread-plate assay as described previously. Briefly, two-fold serially diluted peptides were incubated (37 °C) with approximately 10^6 cells/mL in Tris buffer (10 mM Tris-HCl, pH 7.4). After 90 min of incubation with the peptides, aliquots were removed and plated in duplicate on an appropriate agar plate for each species (SDA for C. albicans, TSA for P. aeruginosa). The plates were incubated for 24–48 h at 30 °C (C. albicans) or 24 h at 37 °C (P. aeruginosa) for enumeration. The cell viability values, expressed as colony forming units (CFUs), were determined relative to incubation without added peptides and represent the mean ± standard deviation (±SD) of at least three independent determinations. For inhibition assays, the cell suspensions were preincubated (15 min at 37 °C) with the corresponding inhibitors before the addition of peptides. Water-insoluble inhibitors were prepared in DMSO, such that the final assay volume was ≤1%. Other specific experimental inhibition conditions are described where appropriate. The IC50 value is expressed as the concentration that caused 50% reduction in viable counts.

[3] = system: Pseudomonas aeruginosa 10145 (PAO1); test: Microbicidal (spread-plate cell viability) assay, pseudomonacidal activity; type: cell-based; settings: for IC50: 90 min, 37 °C, 10 mM Tris-HCl pH 7.4, 10^6 cells/mL, CFU plating, read-out: IC50 (concentration that caused 50% reduction in viable counts) against P. aeruginosa; for effect of high external K^+ on pseudomonacidal activity: Tris buffer with 50 mM KCl vs without
Description: as §3, §4, §5

[4] = system: C. albicans cells; test: Cell membrane permeability assay (propidium iodide, flow cytometry); type: cell-based, Candida albicans; settings: 90 min, 37 °C, range of concentrations, PI 9 μM
Description: (§6) To determine whether Kal-1 and Kdp15 exert a permeabilizing effect on fungal or bacterial membranes, the cellular influx of the fluorescent nucleic-acid-binding dye propidium iodide (PI) was assessed. As PI itself cannot permeate through an intact phospholipid bilayer, only permeabilized cells take up PI, resulting in DNA intercalation and fluorescence.
(§7) Flow cytometry was used to assess the ability of peptides to permeabilize plasma membranes of cells in incorporation of the DNA intercalating dye propidium iodide (PI). C. albicans or P. aeruginosa cells (10^6 cells/mL) in Tris buffer were incubated with two-fold serially diluted peptides for 90 min at 37 °C and subsequently reincubated with PI (9 μM, final concentration) for 5 min. The suspensions were centrifuged at 1100× g for 10 min and subsequently washed with Tris buffer to remove any unbound PI. The peptide Lfpep was used to disrupt the cytoplasmic membrane (positive control). Cell fluorescence was monitored using a Cytomics FC500 Flow Cytometer (Beckman Coulter Life Sciences, Indianapolis, IN, USA). The PI fluorescence was excited at a wavelength of 488 nm and emission was registered at 610 nm. For each treatment, 20,000 events were measured. Data were acquired and analyzed using CytExpert 2.1 software. Results were expressed as the percentage of PI-positive cells with respect to the unstained cells (control). […]

[5] = system: P. aeruginosa cells; test: as above; type: cell-based, Pseudomonas aeruginosa; settings: 90 min, 37 °C, range of concentrations, PI 9 μM
Description: as §6, §7

[6] = target: Pma1p H^+-ATPase (Candida albicans, UniProt P28877); settings: starved C. albicans 10^7 cells/mL in 50 mM KCl, pre-incubated with peptide 2 × IC50, 2.5 mM glucose; control ~1.3 pH units
Pma1p H^+-ATPase, sequence (P28877 whole entry): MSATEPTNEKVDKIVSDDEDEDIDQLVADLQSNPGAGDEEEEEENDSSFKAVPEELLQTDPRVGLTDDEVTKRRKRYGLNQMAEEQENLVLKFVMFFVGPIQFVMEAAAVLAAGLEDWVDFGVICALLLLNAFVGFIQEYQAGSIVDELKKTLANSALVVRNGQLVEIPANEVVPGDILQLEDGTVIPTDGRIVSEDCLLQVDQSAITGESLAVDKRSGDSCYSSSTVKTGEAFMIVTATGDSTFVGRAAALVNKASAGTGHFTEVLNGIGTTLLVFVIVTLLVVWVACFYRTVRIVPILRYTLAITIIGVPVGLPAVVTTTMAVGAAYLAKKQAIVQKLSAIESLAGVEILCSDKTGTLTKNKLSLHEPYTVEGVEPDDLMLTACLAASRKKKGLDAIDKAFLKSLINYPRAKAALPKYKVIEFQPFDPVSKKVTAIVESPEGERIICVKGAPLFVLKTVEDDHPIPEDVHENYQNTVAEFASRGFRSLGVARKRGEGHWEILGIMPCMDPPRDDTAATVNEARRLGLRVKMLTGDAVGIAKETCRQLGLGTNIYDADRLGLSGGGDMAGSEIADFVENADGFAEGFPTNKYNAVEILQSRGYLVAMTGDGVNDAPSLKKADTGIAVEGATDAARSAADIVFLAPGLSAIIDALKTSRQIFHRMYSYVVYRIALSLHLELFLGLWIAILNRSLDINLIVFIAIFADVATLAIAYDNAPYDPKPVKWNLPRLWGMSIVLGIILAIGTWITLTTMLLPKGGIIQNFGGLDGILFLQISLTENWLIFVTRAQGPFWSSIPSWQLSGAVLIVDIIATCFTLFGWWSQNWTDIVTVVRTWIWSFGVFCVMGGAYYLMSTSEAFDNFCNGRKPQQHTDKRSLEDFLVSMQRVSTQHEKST
Description: C. albicans cells (10^7 cells/mL) in 50 mM KCl were preincubated with the peptides (2 × IC50) for 20 min. Glucose (final concentration of 2.5 mM) was then added to induce H^+ efflux via Pma1p H^+-ATPase, as indicated by the subsequent external acidification.
To measure the proton pumping activity of Pma1p H^+-ATPase, a glucose-induced acidification assay of the medium was performed as previously described [10]. Briefly, cultures of C. albicans cells were grown to the mid-log phase in SDB medium and washed twice in Tris buffer (pH 8.0). The cells were resuspended in 50 mM KCl and maintained for 18 h at 4 °C to reduce metabolic activity to a minimum (starvation conditions). To determine the external acidification, starved cells (~10^7 cells/mL) were incubated for 15 min at 30 °C in the absence or the presence of the peptides (2 × IC50). Human lactoferrin (20 μM) was used as a positive control. The initial pH of cellular suspension was adjusted with HCl to pH 6.6 (approx.) and glucose was immediately added (final concentration, 2.5 mM) to the cellular suspension. The pH of the medium was recorded at 1 min intervals for 20 min using a SevenMulti S50-K pH meter (Mettler-Toledo, Greifensee, Switzerland) with a calibrated electrode (InLab 413, Mettler-Toledo) with constant stirring. Every experiment was performed using two replicates and repeated independently three times.

[7] = system: C. albicans cells; test: Measurement of intracellular ATP (BacTiter-Glo); type: cell-based, Candida albicans; settings: C. albicans 10^6 cells/mL, candidacidal concentration, 90 min, 37 °C; BM2 0.25 μM
Description: Total ATP was measured by using the BacTiter-Glo^TM Microbial Cell Viability Assay (Promega Co., Madison, WI, USA) according to the manufacturer’s instructions. […] Aliquots (100 μL) were incubated (90 min at 37 °C) with kaliocin-1, Kdp15, or human lactoferrin and the BM2 peptide (positive control). One hundred microliters of incubation mix was transferred into a 96-well opaque white plate, mixed with an equal volume of the BacTiter-Glo reagent, and incubated for 15 min in the dark. The reagent used a thermostable luciferase to produce luminescence in an ATP-dependent manner. The emitted luminescence was detected by using a Varioskan Flash multimode reader (Thermo Scientific, Waltham, MA, USA) with a 10 s of shaking and 1 s integration time. A calibration curve was prepared for each experiment, with ATP standards ranging from 1 to 1000 nM. For assays performed in the presence of the BM2 peptide, samples were preincubated with 0.25 μM BM2 for 30 min at 37 °C. All the tests were performed in triplicate at least four times.

[8] = system: C. albicans cells; test: Oxygen consumption measurement (Clark-type electrode); type: cell-based, Candida albicans; settings: 5 × 10^6 cells/mL, peptides at IC50, piericidin A 32 μM, at least 30 min, 25 °C
Description: as §1, §2

[9] = system: C. albicans cells; test: Extracellular potassium measurement (K+ efflux, ICP-OES); type: cell-based, Candida albicans; settings: 10^7 cells/mL, peptides 2 × IC50, 37 °C
Description: (§8) Figure 2 Potassium efflux induced by hLf γ-core-containing peptides. (A,D) Kinetics of K^+ efflux. C. albicans or P. aeruginosa (10^7 cells/mL) were incubated with kaliocin-1, Kdp15, human lactoferrin (hLf), and Lfpep. hLf and Lfpep were used as negative and positive controls of the membrane permeabilization, respectively. The effect of antifungal BM2 peptide was evaluated. The extracellular K^+ concentration was quantified at different times. (B,C,E) Effect of extracellular K^+ and TEA^+ on microbicidal activity. (B,E) microbicidal activity was assessed in Tris buffer in the absence or in the presence of 50 mM KCl or (C) 10 mM TEA^+. Cell viability was determined by plating aliquots of the cell suspensions. The percentage of viable cells was determined relative to that for cells incubated without peptides (control). […]
(§9) Measurements of potassium were performed using inductively coupled plasma optical emission spectrometry (ICP-OES) with a Perkin-Elmer Optima 2000 DV spectrometer. […] The percentage of cytosolic K^+ released from cell suspensions treated with Lfpep was determined in positive control assays. The total cellular K^+ content (100% value) was measured in the supernatant of cellular suspensions previously treated only with 0.5% (v/v) HClO4, heated for 1 h at 95 °C, and centrifuged to remove cell debris. […]

[10] = system: P. aeruginosa cells; test: as above; type: cell-based, Pseudomonas aeruginosa; settings: 10^7 cells/mL, peptides 2 × IC50, 37 °C
Description: as §8, §9

[11] = system: Candida albicans ATCC 10231; settings: used in control assays; cited from earlier work
Description: as §3, with “peptide. The hLf γ-core-containing peptides were microbicidal in a concentration-dependent way (Figure 1). […] The IC50 es ...” for “peptide.”

[12] = cells pre-incubated 15 min, 37 °C with 32 μM piericidin A, then 90 min with peptide

Sequence | oxygen consumption of P. aeruginosa in presence of the substance [1] | IC50 [2] [µM] | effect of high external K^+ on candidacidal activity [2] | effect of mitochondrial ATP synthase inhibition (oligomycin A) on candidacidal activity ([2]; cells pre-incubated 15 min, 37 °C with 16 μg/mL oligomycin A) | effect of respiration inhibition (piericidin A) on candidacidal activity [2, 12] | effect of Tok1p K^+ channel block (TEA^+) on candidacidal activity ([2]; cells pre-incubated 15 min with 10 mM TEA^+) | IC50 against C. albicans relative to IC50 of native hLf (fold greater) ([2]; vs hLf IC50 3 μM) [fold] | IC50 [3] [µM] | effect of high external K^+ on pseudomonacidal activity [3] | effect of respiration inhibition (piericidin A) on pseudomonacidal activity [3, 12] | PI fluorescent cells (plasma membrane permeabilization), C. albicans [4] | PI fluorescent cells (plasma membrane permeabilization), P. aeruginosa [5] | decrease of external pH after 20 min (glucose-induced acidification) [6] | increment in intracellular ATP (iATP) level compared to untreated control [7] | oxygen consumption of C. albicans in presence of the substance [8] | K^+ efflux from C. albicans, in words [9] | K^+ efflux from P. aeruginosa, in words [10] | previously reported microbicidal concentration (organism not given) [11] [µM]
NLCRLCAGTGENKCA [Kdp15, 15-mer kaliocin-1-derived peptide containing the complete hLf γ-core] | equal to that of untreated (control) cells | 100 | seemed to protect | less susceptible | less susceptible | less susceptible | ~33 | 3 | seemed to protect | less susceptible | not significantly increased | not significantly increased | approximately 0.5 pH units | ~ 5 fold | equal to that of untreated (control) cells |  |  | 
TKCFQWQRNMRKVRGPPVSCIKR [Lfpep, antimicrobial hLf-derived peptide without a γ-core motif that permeabilizes bacterial and fungal cytoplasmic membranes, reference compound] |  | 20 | not modified |  |  |  |  | 0.5 | not modified |  | significant increase | significant increase |  |  |  | rapid and increased K^+ release | rapid and increased K^+ release | 50
